From article PMC7849180 (Frontiers in Pharmacology, 2020)
“And” between values parts separate entries of the source, which are not always exact repeats. Identical values can stand only once.

Experiments:
[1] = in vivo
Protocol: Food effect part was a two-period crossover study and conducted after finishing both SAD and MAD parts. […] For group A, the urine and feces samples for pharmacokinetic (PK) analysis were collected in the first period.
Safety was assessed according to the NCI CTCAE version 4.03, including AEs of changes in vital signs, 12-lead ECGs, abdominal ultrasound, chest X-ray, physical examination and clinical laboratory tests. Abdominal ultrasound and chest X-ray were only performed at screening. 12-lead ECGs, physical examination and clinical laboratory tests were conducted in screening and day 3 after administration in SAD cohorts; days 4, 7 and 12 in MAD cohorts; day 8 in food effect cohort. Vital signs were measured at screening and admission, 0 h (pre-dose) and 2, 6, 24, 48 h after administration in SAD cohorts; 0, 2, 6 h on day 1, 0 h on days 2, 3, 4, 7, 0, 2, 6, 24, 48 h after the last dose in MAD cohorts; 0, 2, 6, 24, 48, 72, 120 h in period 1 and 2, 6, 24, 48 h in period two in food effect cohort.

[2] = PK, single intravenous dose; type: in vivo, rats; details: 6.1 mg/kg ZG0128 iv
Protocol: Preclinical Pharmacokinetic Properties
Pharmacokinetic Study of Single Dose Intravenous Administration in […]
ZG0163 administered via intravenous injection had low plasma clearance in rats, […]
The Tmax of the metabolite
ZG0245 in rats was 1.0 h on average, and the plasma exposure (AUC0-t) was 15.0% of the original drug. The pharmacokinetic parameters obtained after the intravenous […]
Table 10. Pharmacokinetic parameters of ZG0163 in rats administered with 6.1 mg/kg of ZG0128 via intravenous injection. […]

[3] = Treatment-related AEs (NCI CTCAE), SAD cohorts; type: in vivo, human
Protocol: In SAD part, volunteers were designed into eight SAD cohorts (25, 50, 100, 150, 200, 250, 300 and 400 mg). Among these cohorts, 25 mg was bisected by the 50 mg specification under good manufacturing practices (GMP) condition and provided the certificate of analysis. […] Jaktinib or placebo was administrated after an overnight fast.
(§1) Dose-limiting toxicities (DLTs) were defined according to the NCI CTCAE v.4.03 as any occurrence of the following drug-related adverse events (AEs): more than one third of volunteers suffered Grade ≥4 drug-related hematological toxicities or Grade ≥3 drug-related nonhematological toxicities; one drug-related serious adverse events (SAEs).

[4] = Treatment-related AEs (NCI CTCAE), MAD cohorts; type: in vivo, human
Protocol: MAD study was conducted after evaluating the tolerance of the single dose 100 mg cohort. In MAD part, volunteers were designed into five cohorts (100 mg q24h, 150 mg q24h, 100 mg q12h, 200 mg q24h, 150 mg q12h). […] The MAD part was initiated after the safety and tolerance evaluation from SAD 100 mg cohorts. Progression to higher MAD doses was allowed after review the safety data of the prior MAD cohorts.
as §1

[5] = Bone marrow micronucleus test; type: in vivo, NIH mice; details: 122, 244, 488 mg/kg oral gavage, 4 days
Text: Suzhou Zelgen Biopharmaceuticals Co., Ltd. Jaktinib Hydrochloride Tablets Chemical Drug Class 1 New Drug chromosomal structural aberrations in CHL cells. Therefore, the results of the chromosomal aberration test were negative.
Mouse Bone Marrow Micronucleus Test
A mouse bone marrow micronucleus test of ZG0128 has been performed. After multiple doses of ZG0128 are given to mice via oral gavage, the incidence of micronucleated polychromatic erythrocytes in the bone marrow is observed to estimate the damage to chromosomal integrity in bone marrow cells and subsequent abnormality of chromosome segregation, so as to determine the presence of genotoxicity. The results […]
once a day for 4 consecutive days, neither damage to the chromosomal integrity in bone marrow cells nor abnormal chromosome segregation was observed. Therefore, the results of the micronucleus test were negative.
A Toxicity Test on Fertility and Early Embryo Development in Wistar Rats Administered ZG0128 by Oral Gavage
A toxicity test on the fertility and early embryo development in Wistar rats given ZG0128 by oral gavage was completed. In this test, female and male rats were given a continuous dose of ZG0128 prior to mating until embryo implantation to observe the toxicity or interference of ZG0128 on the fertility and early embryo development in […]
groups of 18, 36, and 72 mg/kg of ZG0128. […]

test strains = assay: Ames test; details: 9.76–6100 μg/mL, with or without S9
Text: Suzhou Zelgen Biopharmaceuticals Co., Ltd. Jaktinib Hydrochloride Tablets

[6] = Metabolic stability in liver microsomes; type: in vitro ADME, human
Protocol: The metabolic stability of ZG0128 (the dihydrochloride monohydrate of ZG0163) was evaluated using human, monkey, dog, rat, and mouse liver microsomes as the in vitro models. The percentages of residues for ZG0128 after incubating in human, monkey, dog, rat, and mouse liver microsomes for 60 minutes was 55.5%, 63.1%, 67.1%, 80.3%, and 79.0%, respectively. The CLint values of in vivo clearance were calculated to be 24.1, 21.6, 33.4, 10.7, 26.0 mL/min/kg, respectively. Thus its was speculated that ZG0128 was a medium clearance drug in humans, monkeys, and mice, a high clearance drug in dogs, and a low clearance drug in rats.
Using UPLC-UV/Q-TOF MS, the potential metabolites of ZG0128 in various liver microsomes (human, monkey, dog, rat and mouse liver microsomes) incubation systems were identified and the metabolic pathways of ZG0128 were speculated. The main metabolite of ZG0128 in above five types of liver microsomes were primary alcohol metabolite formed by morpholine ring-opening (M3). […]

[7] = all SAD volunteers who received jaktinib

With Jaktinib as the compound, how does the “treatment-related Grade 4–5 AEs” value [1] read?
Its value is “Note: No treatment-related Grade 4–5 AEs observed in food effect cohorts”.

What about the AUC0-t ([2]; Female) of the same compound?
The AUC0-t was 26000 ng·h/mL.

What about the “AUC0-∞” value ([2]; Female) of the same compound?
The value was 26000 ng·h/mL.

And the CL ([2]; Female)?
Its CL is 3.23 ± 0.38 mL/min/kg.

And the MRT ([2]; Female)?
Its MRT is 2.11 h.

And the Vss ([2]; Female)?
The Vss was 0.407 ± 0.063 L/kg.

What about the t1/2 ([2]; Female) of the same compound?
The t1/2 was 2.01 h.

What about the AUC0-t ([2]; Male) of the same compound?
The AUC0-t was 17700 ng·h/mL.

And the “AUC0-∞” value ([2]; Male)?
Its value is 17700 ng·h/mL.

And the CL ([2]; Male)?
The CL was 4.92 ± 1.34 mL/min/kg.

And the MRT ([2]; Male)?
Its MRT is 2.16 h.

And the Vss ([2]; Male)?
Its Vss is 0.620 ± 0.120 L/kg.

What about the t1/2 ([2]; Male) of the same compound?
The t1/2 was 2.01 h.

And the AUC0-t ([2]; Overall)?
Its AUC0-t is 21800 ng·h/mL.

And the “AUC0-∞” value ([2]; Overall)?
Its value is 21900 ng·h/mL.

What about the MRT ([2]; Overall) of the same compound?
Its MRT is 2.14 h.

And the t1/2 ([2]; Overall)?
Its t1/2 is 2.01 h.

And the CL ([2]; Overall, listed as ZG0163)?
The CL was 4.07 mL/min/kg and 4.07 ± 1.28 mL/min/kg.

And the Vss ([2]; Overall, listed as ZG0163)?
The Vss was 0.514 L/kg and 0.514 ± 0.145 L/kg.

What about the Elevated serum creatinine ([3]; 25 mg, Grade 1–2) of the same compound?
Its Elevated serum creatinine is 1 (16.7) n (%).

What about the Hematuria ([3]; 100 mg, Grade 1–2) of the same compound?
The Hematuria was 1 (16.7) n (%).

And the Fecal leukocytosis ([3]; 150 mg, Grade 1–2)?
The Fecal leukocytosis was 1 (16.7) n (%).

And the Hyperglycemia ([3]; 150 mg, Grade 1–2)?
The Hyperglycemia was 1 (16.7) n (%).

And the Mucous stool ([3]; 150 mg, Grade 1–2)?
The Mucous stool was 1 (16.7) n (%).

What about the “Positive fecal occult blood” value ([3]; 150 mg, Grade 1–2) of the same compound?
The value was 1 (16.7) n (%).

And the Upper abdominal pain ([3]; 150 mg, Grade 1–2)?
Its Upper abdominal pain is 1 (16.7) n (%).

And the Urinary sediment positive ([3]; 150 mg, Grade 1–2)?
Its Urinary sediment positive is 1 (16.7) n (%).

And the Urine erythrocyte positive ([3]; 150 mg, Grade 1–2)?
The Urine erythrocyte positive was 3 (50.0) n (%).

And the Urine leukocyte positive ([3]; 150 mg, Grade 1–2)?
Its Urine leukocyte positive is 2 (33.3) n (%).

What about the Nausea ([3]; 200 mg, Grade 1–2) of the same compound?
The Nausea was 1 (16.7) n (%).

What about the Urine erythrocyte positive ([3]; 200 mg, Grade 1–2) of the same compound?
Its Urine erythrocyte positive is 1 (16.7) n (%).

And the Fever ([3]; 250 mg, Grade 1–2)?
Its Fever is 1 (16.7) n (%).

What about the Headache ([3]; 250 mg, Grade 1–2) of the same compound?
Its Headache is 1 (16.7) n (%).

What about the Varicella ([3]; 250 mg, Grade 3) of the same compound?
Its Varicella is 1 (16.7) n (%).

And the Dizziness ([3]; 300 mg, Grade 1–2)?
The Dizziness was 1 (16.7) n (%).

And the Fever ([3]; 300 mg, Grade 1–2)?
The Fever was 1 (16.7) n (%).

And the Headache ([3]; 300 mg, Grade 1–2)?
Its Headache is 4 (66.7) n (%).

What about the Lymphocytopenia ([3]; 300 mg, Grade 1–2) of the same compound?
Its Lymphocytopenia is 1 (16.7) n (%).

And the Neutrophilic granulocytosis ([3]; 300 mg, Grade 1–2)?
Its Neutrophilic granulocytosis is 1 (16.7) n (%).

And the Anemia ([3]; 400 mg, Grade 1–2)?
The Anemia was 1 (16.7) n (%).

What about the “volunteers with treatment-related AEs” value ([3]; all SAD cohorts) of the same compound?
The value was 28.1%.

What about the Headache incidence [3, 7] of the same compound?
Its Headache incidence is 10.4%.

And the “positive urine erythrocyte incidence” value [3, 7]?
Its value is 8.3%.

What about the diarrhea incidence ([4]; MAD jaktinib group) of the same compound?
The diarrhea incidence was 22.5%.

And the dizziness incidence ([4]; MAD jaktinib group)?
The dizziness incidence was 17.5%.

What about the leukopenia incidence ([4]; MAD jaktinib group) of the same compound?
The leukopenia incidence was 12.5%.

What about the “volunteers with treatment-related AEs” value ([4]; all MAD cohorts) of the same compound?
Its value is 74.0%.

And the “deaths, SAEs and Grade ≥4 AEs” value ([4]; all cohorts (SAD, MAD, food effect))?
The value was “No deaths, SAEs and Grade ≥4 AEs were reported”.

And the Neutropenia incidence ([4]; in vivo)?
Its Neutropenia incidence is 27.5%.

And the maximally tolerated dose ([4]; multiple dose, q24 h)?
Its maximally tolerated dose is 200 mg.

Which results are given for `Cl.Cl.O.[2H]C1([2H])COCC([2H])([2H])N1c1ccc(Nc2nccc(-c3ccc(C(=O)NCC#N)cc3)n2)cc1` [ZG0128, Jaktinib Dihydrochloride Monohydrate]?
micronucleus test result [5]: negative; Ames test result (test strains): negative; CLint of in vivo clearance [6]: 24.1 mL/min/kg; percentage of residue after 60 minutes [6]: 55.5%
